This passage reports melting point results from patent publication US8541607B2, “Disulfide, sulfide, sulfoxide, and sulfone derivatives of cyclic sugars and uses thereof” (Lacer, S.A., priority 2003, dated 2013).

Where a name gives a salt, the structure may show the parent alone.

In general, melting point refers to the temperature of the solid-liquid transition. As to `C[S@@+]([O-])[C@H]1CO[C@H]2[C@@H]1OC[C@H]2O[N+](=O)[O-]` (as salt: nitrate) [(4), 2-[(R)-methylsulfinyl]isosorbide 5-mononitrate], the melting point came to 115 °C.
